The values below come from ChEMBL document CHEMBL1201862, “PubChem BioAssay data set” (2004).

The term GI50 denotes the concentration giving 50% growth inhibition.

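Cultured in 96-well plates, cells were exposed to test compound for 48 hours across five concentrations. GI50 is the concentration that inhibits growth by half.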 The source made the active and inactive calls. Cut-off read from the data, not from the text of the source: active = GI50 up to about 1.1 µM and inactive = higher. Some results are limits rather than exact numbers.

Among the test systems are HOP-92; LOX IMVI; KM12; K562; SNB-75; HCC 2998; OVCAR-8; U-251; A549; SNB-19; HL-60; UACC-62; SK-MEL-28; SK-MEL-5; MOLT-4; HCT-15; NCI-H226; M14; OVCAR-3.
Common to all, as to test: DTP human tumour cell line panel, 48 h

Turning to `CCOC(C)C(/C=N/NC(N)=S)=NNC(N)=S` (stereo not given) [GLOXAZONE], the GI50 in the test with HOP-92 was 46.1 µM (inactive); in the test with LOX IMVI, > 100 µM (inactive); with KM12, > 100 µM (inactive); in the test on K562, < 0.0195 µM (active); in the test on SNB-75 it was 40.3 µM (inactive); in the test with HCC 2998, > 100 µM (inactive). In addition, the GI50 with OVCAR-8 is > 100 µM (inactive); in the test on U-251, 1.07 µM (active); in the test with A549, > 100 µM (inactive); in the test on SNB-19 it was > 100 µM (inactive); in the test on HL-60, 0.0531 µM (active); in the test on UACC-62 it was > 100 µM (inactive). Also, the GI50 was > 74.1 µM (inactive) with SK-MEL-28, 48.3 µM (inactive) in the test with SK-MEL-5, < 0.0254 µM (active) in the test with MOLT-4 and over 100 µM with HCT-15.
Turning to `C/C(CC(=O)Nc1ccc(C)cc1C)=N/N=C(N)N`, the GI50 with HOP-92, in the test with LOX IMVI, in the test with NCI-H226, in the test on KM12, with K562 and in the test with SNB-75 was > 100 µM (inactive) in each case. The GI50 in the test with HCC 2998, in the test with OVCAR-8, in the test with M14, in the test with U-251, with A549 and in the test on HL-60 was > 100 µM (inactive) throughout. In addition, the GI50 with OVCAR-3, in the test on UACC-62, with SK-MEL-28, in the test with SK-MEL-5 and in the test on MOLT-4 was > 100 µM (inactive) each time.
For `COc1cc2c(cc1OCc1ccccc1)CNCC2`, the GI50 was 23.6 µM (inactive) with HOP-92; 91.6 µM (inactive) with LOX IMVI; > 100 µM (inactive) in the test on NCI-H226; > 100 µM (inactive) with KM12; > 100 µM (inactive) in the test on K562; > 100 µM (inactive) in the test with SNB-75. Also, the GI50 with HCC 2998, in the test on OVCAR-8, in the test with M14, in the test on U-251, in the test on A549 and in the test on SNB-19 was > 100 µM (inactive) each time. The GI50 was 70.3 µM (inactive) in the test on HL-60; > 100 µM (inactive) in the test with OVCAR-3; > 100 µM (inactive) in the test on UACC-62; > 100 µM (inactive) in the test on SK-MEL-28; > 100 µM (inactive) in the test on SK-MEL-5; > 100 µM (inactive) in the test with MOLT-4. Moreover, in the test with HCT-15, the GI50 was over 100 µM.
On to `CC(=O)NC1=C(N)C(=O)c2ccccc2C1=O`, for which the GI50 in the test with HOP-92 was > 100 µM (inactive); in the test on LOX IMVI, 15.3 µM (inactive); in the test on KM12 it was > 100 µM (inactive); in the test on K562, 57.5 µM (inactive); in the test with SNB-75 it was > 100 µM (inactive); in the test with HCC 2998 it was > 100 µM (inactive). Also, the GI50 in the test with OVCAR-8 was > 100 µM (inactive); in the test with M14, 43.6 µM (inactive); in the test with U-251, 56.5 µM (inactive); with A549 it was 44.4 µM (inactive); in the test with SNB-19, > 100 µM (inactive); with HL-60 it was 27.1 µM (inactive). For the same compound, the GI50 in the test on OVCAR-3 is 20.2 µM (inactive); with UACC-62 it was 49.8 µM (inactive); in the test on SK-MEL-5, 30.6 µM (inactive); in the test on MOLT-4 it was > 100 µM (inactive); with HCT-15, 47.6 µM.
`COC(=O)C(Cl)=C1CC1`: the GI50 with HOP-92 is 13.3 µM (inactive); with LOX IMVI it was 16.7 µM (inactive); in the test on NCI-H226, > 100 µM (inactive); in the test on KM12, 37 µM (inactive); in the test with K562, 22.3 µM (inactive); with SNB-75, 38.4 µM (inactive). For the same compound, the GI50 with HCC 2998 is 31.7 µM (inactive); in the test on OVCAR-8, 30.3 µM (inactive); in the test with M14 it was 16.2 µM (inactive); in the test with A549 it was > 100 µM (inactive); in the test with SNB-19 it was > 100 µM (inactive); with HL-60 it was 19.7 µM (inactive). Further, the GI50 was 26.7 µM (inactive) in the test with OVCAR-3; 59 µM (inactive) in the test with UACC-62; 22.9 µM (inactive) with SK-MEL-28; 28.5 µM (inactive) in the test with SK-MEL-5; 17.7 µM (inactive) in the test on MOLT-4; 20.4 µM with HCT-15.
`ClC(Cl)=C(Cl)C1(Cl)CC1COCc1ccccc1` (stereo not given): the GI50 in the test on HOP-92 was 15.3 µM (inactive); in the test on LOX IMVI, 23.1 µM (inactive); with NCI-H226 it was 22.4 µM (inactive); in the test on KM12 it was 35 µM (inactive); in the test on K562 it was 30.2 µM (inactive); with SNB-75, 37.2 µM (inactive). Besides, the GI50 in the test with HCC 2998 is 31.6 µM (inactive); in the test on OVCAR-8, 33.1 µM (inactive); in the test on M14, 32.4 µM (inactive); in the test on A549, 26.1 µM (inactive); with SNB-19, 36.9 µM (inactive); in the test on HL-60, 15.6 µM (inactive). The GI50 in the test with OVCAR-3 is 22.6 µM (inactive); in the test on UACC-62, 22.5 µM (inactive); with SK-MEL-28, 56.2 µM (inactive); in the test on SK-MEL-5, 15.8 µM (inactive); with MOLT-4, 20.9 µM (inactive); in the test with HCT-15, 33.3 µM.
As to `N#CC1CCCCCCCCCCC(=O)N(CCCl)C1=O` (stereo not given), the GI50 in the test with HOP-92, with LOX IMVI, in the test with KM12, with K562, in the test with SNB-75 and in the test on HCC 2998 was > 100 µM (inactive) each time. The GI50 in the test with OVCAR-8, in the test with M14, with U-251, in the test on A549, in the test with SNB-19 and with HL-60 was > 100 µM (inactive) in each case. Also, the GI50 with OVCAR-3, in the test on UACC-62, in the test on SK-MEL-28, in the test with SK-MEL-5 and with MOLT-4 was > 100 µM (inactive) throughout.
`NCCCOc1ccc([N+](=O)[O-])cc1Cl`: the GI50 with HOP-92 was 68.9 µM (inactive); in the test on NCI-H226 it was > 100 µM (inactive); in the test with KM12, > 100 µM (inactive); in the test with K562, 85.9 µM (inactive); in the test on SNB-75 it was 61.1 µM (inactive); in the test with HCC 2998 it was > 100 µM (inactive). In addition, the GI50 in the test with OVCAR-8, with M14, in the test on U-251, in the test on A549, in the test on SNB-19 and with HL-60 was > 100 µM (inactive) throughout. For the same compound, the GI50 was > 100 µM (inactive) in the test with OVCAR-3; > 100 µM (inactive) in the test with UACC-62; > 100 µM (inactive) in the test on SK-MEL-28; > 100 µM (inactive) in the test on SK-MEL-5; > 100 µM (inactive) with MOLT-4; over 100 µM with HCT-15.
